Test results taken from patent US8846666B2, “Oxathiazine derivatives which are substituted with benzyl or heteromethylene groups, method for producing them, their use as medicine and drug containing said derivatives and the use thereof” (Sanofi, priority 2011, dated 2014).

target: human 11β-HSD1 microsome fraction (Homo sapiens, UniProt P28845); test: Enzymatic 11Beta-HSD1 test (SPA-based detection); type: biochemical; details: [1,2-3H]-cortisone, NADPH, 37° C. for 1 hour
Procedure: Enzymatic 11Beta-HSD1 Test:
To measure the activity of the compounds, an SPA-based detection method (Solly et al. 2005) was employed. First of all, 20 μl of the human 11β-HSD1 microsome fraction (0.2 μg of protein), prepared in 50 mM HEPES, 0.1% BSA (w/v), were applied to a plate with 384 wells. The test compounds (0.09 μl) were applied to the assay plate in 100% DMSO. The reaction was started by addition of 20 μl of [1,2-^3H]-cortisone (0.1 μCi/[…]) in assay buffer comprising 25 mM HEPES, 100 mM KCl, 5 mM NaCl, 2 mM MgCl2 and 0.25 mM NADPH. The plate was agitated at 37° C. for 1 hour. At the same time, a stop solution comprising 20 mg/ml SPA-PVT beads, 1.6 mg/ml monoclonal cortisol antibody and 0.01 mM SSR110887 (inhibitor from the Biovitrium patent) in 50 mM HEPES, 1 M NaCl and 1 M KCl was stirred at room temperature. To stop the reaction, 25 μl of the stop solution were added to each well. The plate was agitated gently at room temperature for 1 further hour and then centrifuged at 500 gav for 1 min, in order that the SPA beads could settle out. The plate was then read in a Wallac-1450-Microbeta unit with a standard SPA program (counting time 1 min/well). The comparative compound was glycyrrhetinic acid.
Protein and radioactive substrate were dispensed with a Biomek FX unit (Beckman Coulter) for handling liquids. The test compounds were added with a Cybi-Well equipped with a 90 nl pin tool (CyBio).
Lit.: Solly S, Mundt S S, Zokian H J, Juy-Fang Ding G, Hermanowski-Vosatka A, Strulovici B and Zheng W. High-throughput screening of 11β-Hydroxysteroid dehydrogenase type 1 in scintillation proximity format. Assay Drug Dev Technol 2005; 3:377-384.

Chain of human 11β-HSD1 microsome fraction (P28845 whole entry): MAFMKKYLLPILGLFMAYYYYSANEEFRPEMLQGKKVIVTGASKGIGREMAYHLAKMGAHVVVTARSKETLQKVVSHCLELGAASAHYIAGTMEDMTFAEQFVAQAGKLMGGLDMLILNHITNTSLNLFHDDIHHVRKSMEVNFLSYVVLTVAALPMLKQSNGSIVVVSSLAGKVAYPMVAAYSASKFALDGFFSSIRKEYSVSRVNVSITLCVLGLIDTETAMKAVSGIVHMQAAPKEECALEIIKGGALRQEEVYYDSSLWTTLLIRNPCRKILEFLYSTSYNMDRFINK

| SMILES | IC50 |
| --- | --- |
| CC1(C)OC(N[C@@H](CCO)c2ccccc2)=NS(=O)(=O)C1Cc1ccccc1 (stereo partly drawn) [Example 2, (S)-3-(5-Benzyl-6,6-dimethyl-4,4-dioxo-5,6-dihydro-4H-4lambda6-[1,4,3]oxathiazin-2-ylamino)-3-phenyl-propan-1-ol] | 7 nM |
| CC1(C)OC(N[C@@H](CCO)c2ccccc2F)=NS(=O)(=O)C1(C)Cc1ccc(-c2ccc(C(F)(F)F)cn2)cc1 (stereo partly drawn) [Example 7, (S)-3-(2-Fluorophenyl)-3-{5,6,6-trimethyl-4,4-dioxo-5-[4-(5-trifluoromethyl-pyridin-2-yl)-benzyl]-5,6-dihydro-4H-4lambda6-[1,4,3]oxathiazin-2-ylamino}-propan-1-ol] | 12 nM |
| CC1(C)OC(N[C@@H](CCO)c2ccccc2F)=NS(=O)(=O)C1Cc1ccc(-c2ccc(C(F)(F)F)cn2)cc1 (stereo partly drawn) [Example 8, (S)-3-{6,6-Dimethyl-4,4-dioxo-5-[4-(5-trifluoromethyl-pyridin-2-yl)-benzyl]-5,6-dihydro-4H-4lambda6-[1,4,3]oxathiazin-2-ylamino}-3-(2-fluoro-phenyl)-propan-1-ol] | 7 nM |
| CC1(C)OC(N[C@@H](CCO)c2ccccc2Cl)=NS(=O)(=O)C1Cc1ccccc1 (stereo partly drawn) [Example 11, (S)-3-(5-Benzyl-6,6-dimethyl-4,4-dioxo-5,6-dihydro-4H-4lambda6-[1,4,3]oxathiazin-2-ylamino)-3-(2-chlorophenyl)-propan-1-ol] | 8 nM |
| CC1(C)OC(N[C@@H](CCO)c2cccc(F)c2Cl)=NS(=O)(=O)C1Cc1ccccc1 (stereo partly drawn) [Example 13, (S)-3-(5-Benzyl-6,6-dimethyl-4,4-dioxo-5,6-dihydro-4H-4lambda6-[1,4,3]oxathiazin-2-ylamino)-3-(2-chloro-3-fluorophenyl)-propan-1-ol] | 6 nM |
| CC1(C)OC(N[C@@H](CCO)c2ccc(Cl)cc2)=NS(=O)(=O)C1Cc1ccccc1 (stereo partly drawn) [Example 15, (S)-3-(5-Benzyl-6,6-dimethyl-4,4-dioxo-5,6-dihydro-4H-4lambda6-[1,4,3]oxathiazin-2-ylamino)-3-(4-chlorophenyl)-propan-1-ol] | 10 nM |
| CC1(C)OC(N[C@@H](CCO)c2cccc(Cl)c2)=NS(=O)(=O)C1Cc1ccccc1 (stereo partly drawn) [Example 16, (S)-3-(5-Benzyl-6,6-dimethyl-4,4-dioxo-5,6-dihydro-4H-4lambda6-[1,4,3]oxathiazin-2-ylamino)-3-(3-chlorophenyl)-propan-1-ol] | 6 nM |
| CC1(C)OC(N[C@@H](CCO)c2ccccc2F)=NS(=O)(=O)C1Cc1ccc(C2CCNCC2)cc1 (stereo partly drawn) [Example 22, (S)-3-[6,6-Dimethyl-4,4-dioxo-5-(4-piperidin-4-yl-benzyl)-5,6-dihydro-4H-4lambda6-[1,4,3]oxathiazin-2-ylamino]-3-(2-fluorophenyl)-propan-1-ol] | 7 nM |
| CC1(C)OC(N[C@@H](CCO)c2ccccc2F)=NS(=O)(=O)C1Cc1ccc(C2=CCNCC2)cc1 (stereo partly drawn) [Example 23, (S)-3-{6,6-Dimethyl-4,4-dioxo-5-[4-(1,2,3,6-tetrahydro-pyridin-4-yl)-benzyl]-5,6-dihydro-4H-4lambda6-[1,4,3]oxathiazin-2-ylamino}-3-(2-fluoro-phenyl)-propan-1-ol] | 17 nM |
| CN1CCC(c2ccc(CC3C(C)(C)OC(N[C@@H](CCO)c4ccccc4F)=NS3(=O)=O)cc2)CC1 (stereo partly shown) [Example 25] | 20 nM |
| CC1(C)OC(N[C@@H](CCO)c2ccccc2F)=NS(=O)(=O)C1Cc1ccc(C2CCN(CCCO)CC2)cc1 (stereo partly shown) [Example 26] | 16 nM |
| CC1(C)OC(N[C@@H](CCO)c2ccccc2F)=NS(=O)(=O)C1Cc1ccc(C2CCN(C3CC3)CC2)cc1 (stereo partly drawn) [Example 28, (S)-3-{5-[4-(1-Cyclopropyl-piperidin-4-yl)-benzyl]-6,6-dimethyl-4,4-dioxo-5,6-dihydro-4H-4lambda6-[1,4,3]oxathiazin-2-ylamino}-3-(2-fluorophenyl)-propan-1-ol] | 9 nM |
| CC1(C)OC(N[C@@H](CCO)c2ccccc2F)=NS(=O)(=O)C1Cc1ccc(C2CCN(CCC(F)(F)F)CC2)cc1 (stereo partly drawn) [Example 29, (S)-3-(6,6-Dimethyl-4,4-dioxo-5-{4-[1-(3,3,3-trifluoropropyl)-piperidin-4-yl]-benzyl}-5,6-dihydro-4H-4lambda6-[1,4,3]oxathiazin-2-ylamino)-3-(2-fluorophenyl)-propan-1-ol] | 7 nM |

The remaining compounds from weak to strong by IC50, led by results:

| IC50 | SMILES |
| --- | --- |
| 6 nM | CC1(C)OC(N[C@@H](CCO)c2ccccc2F)=NS(=O)(=O)C1(C)Cc1ccc(-c2ccccn2)cc1 (stereo partly drawn) [Example 6, (S)-3-(2-Fluorophenyl)-3-[5,6,6-trimethyl-4,4-dioxo-5-(4-pyridin-2-yl-benzyl)-5,6-dihydro-4H-4lambda6-[1,4,3]oxathiazin-2-ylamino]-propan-1-ol] |
| 5 nM | CC1(C)OC(N[C@@H](CCO)c2ccccc2)=NS(=O)(=O)C1Cc1ccc(Cl)cc1 (stereo partly drawn) [Example 1, (S)-3-[5-(4-Chlorobenzyl)-6,6-dimethyl-4,4-dioxo-5,6-dihydro-4H-4lambda6-[1,4,3]oxathiazin-2-ylamino]-3-phenyl-propan-1-ol] |
| 5 nM | C[C@H](NC1=NS(=O)(=O)C(C)(Cc2ccccc2)C(C)(C)O1)c1ccccc1F (stereo partly drawn) [Example 5, (5-Benzyl-5,6,6-trimethyl-4,4-dioxo-5,6-dihydro-4H-4lambda6-[1,4,3]oxathiazin-2-yl)-[(S)-1-(2-fluorophenyl)-ethyl]-amine] |
| 5 nM | CC1(C)OC(N[C@@H](CCO)c2ccccc2F)=NS(=O)(=O)C1Cc1cccc(-c2ccccc2)c1 (stereo partly drawn) [Example 9, (S)-3-(5-Biphenyl-3-ylmethyl-6,6-dimethyl-4,4-dioxo-5,6-dihydro-4H-4lambda6-[1,4,3]oxathiazin-2-ylamino)-3-(2-fluoro-phenyl)-propan-1-ol] |
| 5 nM | CC1(C)OC(N[C@@H](CCO)c2ccc(F)cc2F)=NS(=O)(=O)C1Cc1ccccc1 (stereo partly drawn) [Example 18, (S)-3-(5-Benzyl-6,6-dimethyl-4,4-dioxo-5,6-dihydro-4H-4lambda6-[1,4,3]oxathiazin-2-ylamino)-3-(2,4-difluorophenyl)-propan-1-ol] |
| 5 nM | CC1(C)OC(NC23CCC(F)(CC2)CC3)=NS(=O)(=O)C1Cc1ccccc1 (stereo not shown) [Example 20, (5-Benzyl-6,6-dimethyl-4,4-dioxo-5,6-dihydro-4H-4lambda6-[1,4,3]oxathiazin-2-yl)-(4-fluoro-bicyclo[2.2.2]oct-1-yl)-amine] |
| 5 nM | CC1(C)OC(N[C@@H](CCO)c2ccccc2F)=NS(=O)(=O)C1Cc1cccc2ccccc12 (stereo partly drawn) [Example 21, (S)-3-(6,6-Dimethyl-5-naphthalen-1-ylmethyl-4,4-dioxo-5,6-dihydro-4H-4lambda6-[1,4,3]oxathiazin-2-ylamino)-3-(2-fluorophenyl)-propan-1-ol] |
| 5 nM | CC1(C)OC(N[C@@H](CCO)c2ccccc2F)=NS(=O)(=O)C1Cc1ccc(C2CCN(CCO)CC2)cc1 (stereo partly shown) [Example 27] |
| 4 nM | C[C@H](NC1=NS(=O)(=O)C(C)(Cc2ccc(Br)cc2)C(C)(C)O1)c1ccccc1F (stereo partly drawn) [Example 3, [5-(4-Bromobenzyl)-5,6,6-trimethyl-4,4-dioxo-5,6-dihydro-4H-4lambda6-[1,4,3]oxathiazin-2-yl]-[(S)-1-(2-fluorophenyl)-ethyl]-amine] |
| 4 nM | CC1(C)OC(N[C@@H](CCO)c2ccccc2F)=NS(=O)(=O)C1Cc1ccc(-c2ccccc2)cc1 (stereo partly drawn) [Example 10, (S)-3-(5-Biphenyl-4-ylmethyl-6,6-dimethyl-4,4-dioxo-5,6-dihydro-4H-4lambda6-[1,4,3]oxathiazin-2-ylamino)-3-(2-fluoro-phenyl)-propan-1-ol] |
| 4 nM | CC1(C)OC(N[C@@H](CCO)c2ccccc2F)=NS(=O)(=O)C1Cc1ccccc1 (stereo partly drawn) [Example 12, (S)-3-(5-Benzyl-6,6-dimethyl-4,4-dioxo-5,6-dihydro-4H-4lambda6-[1,4,3]oxathiazin-2-ylamino)-3-(2-fluorophenyl)-propan-1-ol] |
| 4 nM | CC1(C)OC(N[C@@H](CCO)c2cc(Cl)ccc2F)=NS(=O)(=O)C1Cc1ccccc1 (stereo partly drawn) [Example 14, (S)-3-(5-Benzyl-6,6-dimethyl-4,4-dioxo-5,6-dihydro-4H-4lambda6-[1,4,3]oxathiazin-2-ylamino)-3-(5-chloro-2-fluorophenyl)-propan-1-ol] |
| 4 nM | CC1(C)OC(N[C@@H](CCO)c2cc(F)ccc2F)=NS(=O)(=O)C1Cc1ccccc1 (stereo partly drawn) [Example 17, (S)-3-(5-Benzyl-6,6-dimethyl-4,4-dioxo-5,6-dihydro-4H-4lambda6-[1,4,3]oxathiazin-2-ylamino)-3-(2,5-difluorophenyl)-propan-1-ol] |
| 4 nM | Cc1ccc(F)cc1[C@H](CCO)NC1=NS(=O)(=O)C(Cc2ccccc2)C(C)(C)O1 (stereo partly drawn) [Example 19, (S)-3-(5-Benzyl-6,6-dimethyl-4,4-dioxo-5,6-dihydro-4H-4lambda6-[1,4,3]oxathiazin-2-ylamino)-3-(5-fluoro-2-methyl-phenyl)-propan-1-ol] |
| 3 nM | CC1(C)OC(N[C@@H](CCO)c2ccccc2F)=NS(=O)(=O)C1(C)Cc1ccc(Br)cc1 (stereo partly drawn) [Example 4, (S)-3-[5-(4-Bromobenzyl)-5,6,6-trimethyl-4,4-dioxo-5,6-dihydro-4H-4lambda6-[1,4,3]oxathiazin-2-ylamino]-3-(2-fluorophenyl)-propan-1-ol] |
